Data published in patent US7598245B2 (Vertex Pharmaceuticals Incorporated, priority 2003, dated 2009).
pKi: −log10 of the molar value.

How the values were obtained:
Type in all cases: biochemical
[1] = target: T1, human Src kinase (Homo sapiens, UniProt P12931); assay: Src inhibition assay B: spectrophotometric (uv-vis) coupled enzyme assay; details: 100 μM ATP
T1 construct: 25 nM of recombinant human Src kinase
Protocol: The compounds are evaluated as inhibitors of human Src kinase using either a radioactivity-based assay or spectrophotometric assay.
Src Inhibition Assay B: Spectrophotometric Assay
The ADP produced from ATP by the human recombinant Src kinase-catalyzed phosphorylation of poly Glu-Tyr substrate is quantified using a coupled enzyme assay [Fox et al. Protein Sci. 1998, 7, 2249]. In this assay one molecule of NADH is oxidised to NAD for every molecule of ADP produced in the kinase reaction. The disappearance of NADH is conveniently followed at 340 nm.
The following are the final concentrations of the assay components: 0.025 M HEPES (pH 7.6), 10 mM MgCl2, 2 mM DTT, 0.25 mg/ml poly Glu-Tyr, and 25 nM of recombinant human Src kinase. Final concentrations of the components of the coupled enzyme system are 2.5 mM phosphoenolpyruvate, 200 μM NADH, 30 μg/ml pyruvate kinase and 10 μg/ml lactate dehydrogenase.
In a typical assay, all the reaction components with the exception of ATP are pre-mixed and aliquoted into assay plate wells. Inhibitors dissolved in DMSO are added to the wells to give a final DMSO concentration of 2.5%. The assay plate is incubated at 30° C. for 10 min before initiating the reaction with 100 μM ATP. The absorbance change at 340 nm with time, the rate of the reaction, is monitored on a molecular devices plate reader. The data of rate as a function of the inhibitor concentration is fitted to competitive inhibition kinetics model to get the Ki for the compound.

[2] = target: T2, Aurora-2 (Homo sapiens, UniProt O14965); assay: Inhibition of AUR-2, coupled enzyme assay
T2 construct: addition of 10 μL of Aurora-2 stock solution to give a final concentration of 70 nM
T2 sequence (O14965 1-403): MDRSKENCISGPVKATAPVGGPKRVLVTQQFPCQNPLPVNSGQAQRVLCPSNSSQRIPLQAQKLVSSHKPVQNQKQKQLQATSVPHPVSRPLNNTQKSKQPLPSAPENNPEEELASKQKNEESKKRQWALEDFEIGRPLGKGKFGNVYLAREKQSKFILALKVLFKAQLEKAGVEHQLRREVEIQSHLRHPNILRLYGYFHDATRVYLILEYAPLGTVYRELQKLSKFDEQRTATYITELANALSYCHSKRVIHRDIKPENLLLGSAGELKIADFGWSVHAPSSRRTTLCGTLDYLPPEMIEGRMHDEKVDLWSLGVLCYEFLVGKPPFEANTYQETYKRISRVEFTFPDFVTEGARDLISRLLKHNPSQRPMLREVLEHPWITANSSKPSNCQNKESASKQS
Protocol: Compounds are screened in the following manner for their ability to inhibit Aurora-2 using a standard coupled enzyme assay (Fox et al (1998) Protein Sci 7, 2249). To an assay stock buffer solution containing 0.1M HEPES 7.5, 10 mM MgCl2, 1 mM DTT, 25 mM NaCl, 2.5 mM phosphoenolpyruvate, […], 30 mg/ml pyruvate kinase, 10 mg/ml lactate dehydrogenase, 40 mM ATP, and 800 μM peptide (LRRASLG, American Peptide, Sunnyvale, Calif.) is added a DMSO solution of a compound of the present invention to a final concentration of 30 μM. The resulting mixture is incubated at 30° C. for 10 min. The reaction was initiated by the addition of 10 μL of Aurora-2 stock solution to give a final concentration of 70 nM in the assay. The rates of reaction are obtained by monitoring absorbance at 340 nm over a 5 minute read time at 30° C. using a BioRad Ultramark plate reader (Hercules, Calif.). The Ki values are determined from the rate data as a function of inhibitor concentration.

[3] = target: T3, c-KIT (Homo sapiens, UniProt P10721); assay: Inhibition of c-KIT, radiometric filter-binding assay; details: 700 μM ATP, pE4Y substrate
T3 construct: 0.02% BSA and 25 nM c-KIT
Protocol: Compounds are screened for their ability to inhibit c-KIT activity using a radiometric filter-binding assay. This assay monitors the ^33P incorporation into a substrate poly(Glu, Tyr) 4:1 (pE4Y). Reactions are carried out in a solution containing 100 mM HEPES (pH 7.5), 10 mM MgCl2, 25 mM NaCl, 1 mM DTT, 0.01% BSA and 2.5% DMSO. Final substrate concentrations in the assay were 700 μM ATP and 0.5 mg/mL pE4Y (both from Sigma Chemicals, St Louis, Mo.). The final concentration of compounds is generally between 0.01 and 5 μM. Typically, a 12-point titration is conducted by preparing serial dilutions from 10 mM DMSO stock of test compound. Reactions were carried out at room temperature.
Two assay solutions are prepared. Solution 1 contains 100 mM HEPES (pH 7.5), 10 mM MgCl2, 25 mM NaCl, 1 mg/ml pE4Y and 1.4 mM ATP (containing 0.5 μCi of [γ-^33P]ATP for each reaction). Solution 2 contains 100 mM HEPES (pH 7.5), 10 mM MgCl2, 25 mM NaCl, 2 mM DTT, 0.02% BSA and 25 nM c-KIT. The assay is run on a 96 well plate by mixing 33 μL of Solution1 and 1.65 μL of the test compounds. The reaction is initiated with 33 μL of Solution2. After incubation for 20 minutes at room temperature, the reaction was stopped with 50 μL of 10% TCA containing 0.2 mM of ATP. All of the reaction volume is then transferred to a filter plate and washed with 5% TCA by a Harvester9600 from TOMTEC (Hamden, Conn.). The amount of ^33P incorporation into pE4y is analyzed by a Packard TopCount Microplate Scintillation Counter (Meriden, Conn.). The data is fitted using Prism software to get an IC50 or Ki.

T1 sequence (P12931 whole entry): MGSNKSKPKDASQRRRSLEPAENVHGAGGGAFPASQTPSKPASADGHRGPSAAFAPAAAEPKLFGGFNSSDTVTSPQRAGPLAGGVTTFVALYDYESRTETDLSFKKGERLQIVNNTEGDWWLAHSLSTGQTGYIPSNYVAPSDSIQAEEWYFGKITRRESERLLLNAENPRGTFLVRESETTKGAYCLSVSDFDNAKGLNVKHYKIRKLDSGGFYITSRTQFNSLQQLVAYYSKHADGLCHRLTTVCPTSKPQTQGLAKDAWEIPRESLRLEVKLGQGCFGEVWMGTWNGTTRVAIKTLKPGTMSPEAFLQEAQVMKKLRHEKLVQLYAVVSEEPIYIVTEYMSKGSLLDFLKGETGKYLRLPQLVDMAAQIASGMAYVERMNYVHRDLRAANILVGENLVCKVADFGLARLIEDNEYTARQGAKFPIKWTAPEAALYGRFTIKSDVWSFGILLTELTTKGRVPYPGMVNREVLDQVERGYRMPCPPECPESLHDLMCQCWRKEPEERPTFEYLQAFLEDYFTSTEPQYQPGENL
T3 sequence (P10721 26-976): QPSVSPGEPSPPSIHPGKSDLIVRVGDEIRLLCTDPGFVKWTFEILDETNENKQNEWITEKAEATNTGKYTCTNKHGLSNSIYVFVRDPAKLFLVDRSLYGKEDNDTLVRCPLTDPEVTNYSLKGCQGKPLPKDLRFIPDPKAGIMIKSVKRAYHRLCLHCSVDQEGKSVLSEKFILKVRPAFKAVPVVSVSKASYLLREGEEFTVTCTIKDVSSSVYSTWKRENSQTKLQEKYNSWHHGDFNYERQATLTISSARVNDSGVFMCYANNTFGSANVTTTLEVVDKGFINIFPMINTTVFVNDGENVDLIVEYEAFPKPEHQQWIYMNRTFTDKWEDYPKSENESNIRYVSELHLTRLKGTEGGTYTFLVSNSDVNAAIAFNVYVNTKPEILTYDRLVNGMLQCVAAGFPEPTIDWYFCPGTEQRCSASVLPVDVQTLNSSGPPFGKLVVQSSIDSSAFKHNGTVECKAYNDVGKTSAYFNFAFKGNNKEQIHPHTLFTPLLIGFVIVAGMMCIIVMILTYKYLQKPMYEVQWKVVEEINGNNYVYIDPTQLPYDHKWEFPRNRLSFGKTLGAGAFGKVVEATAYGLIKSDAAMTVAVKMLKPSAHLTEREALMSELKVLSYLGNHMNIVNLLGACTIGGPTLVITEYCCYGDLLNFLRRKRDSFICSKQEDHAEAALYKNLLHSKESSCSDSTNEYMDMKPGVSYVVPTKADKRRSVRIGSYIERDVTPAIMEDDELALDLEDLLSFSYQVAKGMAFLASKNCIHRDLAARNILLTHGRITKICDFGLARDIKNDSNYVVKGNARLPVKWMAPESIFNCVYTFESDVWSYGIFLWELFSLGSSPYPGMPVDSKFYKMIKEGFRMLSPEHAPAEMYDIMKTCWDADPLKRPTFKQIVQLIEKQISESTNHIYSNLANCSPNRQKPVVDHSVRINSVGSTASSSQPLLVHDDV

pKi [1]	pKi [2]	pKi [3]	Structure (SMILES)
> 6.30	6.00 to 7.00	–	COc1cc(Nc2ncn(-c3ccccc3)n2)cc(OC)c1OC [Compound I-42]
> 6.30	6.00 to 7.00	–	COc1cc(Nc2ncn(-c3ccc(C#N)cc3)n2)cc(OC)c1OC [Compound I-43]
6.00 to 6.30	–	> 7.30	c1ccc(-n2cnc(Nc3ccc4c(c3)OCCO4)n2)cc1 [Compound I-44]
> 6.30	< 6.00	> 7.30	CCOc1cccc(Nc2ncn(-c3ccccc3)n2)c1 [Compound I-45]
< 6.00	< 6.00	> 7.30	CC(C)Oc1cccc(Nc2ncn(-c3ccccc3)n2)c1 [Compound I-46]
< 6.00	–	> 7.30	CCOc1ccc(Nc2ncn(-c3ccccc3)n2)cc1 [Compound I-47]
6.00 to 6.30	–	> 7.30	CN(Cc1ccccc1)c1cc(-n2cnc(Nc3ccccc3)n2)ccn1 [Compound I-55]
6.00 to 6.30	–	> 7.30	CC1CCCN1c1cc(-n2cnc(Nc3ccccc3)n2)ccn1 (stereo not shown) [Compound I-56]
> 6.30	–	> 7.30	CCCN(CCO)c1cc(-n2cnc(Nc3ccccc3)n2)ccn1 [Compound I-58]
> 6.30	6.00 to 7.00	–	OC[C@H]1CCCN(c2cc(-n3cnc(Nc4ccccc4)n3)ccn2)C1 [Compound I-65]
< 6.00	6.00 to 7.00	6.30 to 7.30	CC(=O)N1CCCN(c2cc(-n3cnc(Nc4ccccc4)n3)ccn2)CC1 [Compound I-66]
< 6.00	6.00 to 7.00	–	CCC(=O)N1CCCN(c2cc(-n3cnc(Nc4ccccc4)n3)ccn2)CC1 [Compound I-67]
< 6.00	6.00 to 7.00	–	COCC(=O)N1CCCN(c2cc(-n3cnc(Nc4ccccc4)n3)ccn2)CC1 [Compound I-71]
6.00 to 6.30	6.00 to 7.00	6.30 to 7.30	N#CCC(=O)N1CCCN(c2cc(-n3cnc(Nc4ccccc4)n3)ccn2)CC1 [Compound I-72]
> 6.30	> 7.00	6.30 to 7.30	c1ccc(Nc2ncn(-c3ccnc(N4CCCCCC4)c3)n2)cc1 [Compound I-73]
> 6.30	> 7.00	6.30 to 7.30	CC(=O)N1[C@H](C)CN(c2cc(-n3cnc(Nc4ccccc4)n3)ccn2)C[C@@H]1C [Compound I-74]

pKi [1]	pKi [2]	pKi [3]	Structure (SMILES)
> 6.30	> 7.00	> 7.30	CCOC(=O)c1ccc(Nc2ncn(-c3ccnc(N4C[C@@H](C)N(C(C)=O)[C@@H](C)C4)c3)n2)cc1 [Compound I-75]
6.00 to 6.30	> 7.00	6.30 to 7.30	CC(=O)N1[C@H](C)CN(c2cc(-n3cnc(Nc4ccc(NC(=O)N(C)C)cc4)n3)ccn2)C[C@@H]1C [Compound I-77, 3-(4-{1-[2-(4-Acetyl-3,5-dimethyl-piperazin-1-yl)-pyridin-4-yl]-1H-[1,2,4]triazol-3-ylamino}-phenyl)-1,1-dimethyl-urea]
> 6.30	> 7.00	6.30 to 7.30	COC(=O)Nc1ccc(Nc2ncn(-c3ccnc(N4C[C@@H](C)N(C(C)=O)[C@@H](C)C4)c3)n2)cc1 [Compound I-78]
> 6.30	> 7.00	6.30 to 7.30	CC(=O)N1[C@H](C)CN(c2cc(-n3cnc(Nc4ccc(NC(=O)C(F)(F)F)cc4)n3)ccn2)C[C@@H]1C [Compound I-79]
6.00 to 6.30	–	> 7.30	CC(=O)N1[C@H](C)CN(c2cc(-n3cnc(Nc4ccc(NC(=O)c5cccs5)cc4)n3)ccn2)C[C@@H]1C [Compound I-80]
> 6.30	–	6.30 to 7.30	CC(=O)N1[C@H](C)CN(c2cc(-n3cnc(Nc4ccc(NC(=O)c5ccco5)cc4)n3)ccn2)C[C@@H]1C [Compound I-81, Furan-2-carboxylic acid (4-{1-[2-(4-acetyl-3,5-dimethyl-piperazin-1-yl)-pyridin-4-yl]-1H-[1,2,4]triazol-3-ylamino}-phenyl)-amide]
> 6.30	> 7.00	6.30 to 7.30	CC(=O)N1[C@H](C)CN(c2cc(-n3cnc(Nc4ccc(N)cc4)n3)ccn2)C[C@@H]1C [Compound I-82]
6.00 to 6.30	–	6.30 to 7.30	CC(=O)N1[C@H](C)CN(c2cc(-n3cnc(Nc4ccc(NC(=O)OCC(C)C)cc4)n3)ccn2)C[C@@H]1C [Compound I-90]
6.00 to 6.30	–	6.30 to 7.30	CC(=O)N1[C@H](C)CN(c2cc(-n3cnc(Nc4ccc(NC(=O)OCC(C)(C)C)cc4)n3)ccn2)C[C@@H]1C [Compound I-91]
6.00 to 6.30	–	6.30 to 7.30	CC(=O)N1[C@H](C)CN(c2cc(-n3cnc(Nc4ccc(N5CCN(S(=O)(=O)c6ccc(C)cc6)CC5)cc4)n3)ccn2)C[C@@H]1C [Compound I-92]
> 6.30	–	6.30 to 7.30	CC(=O)N1[C@H](C)CN(c2cc(-n3cnc(Nc4ccc(N5CCN(C(=O)OC(C)(C)C)CC5)cc4)n3)ccn2)C[C@@H]1C [Compound I-97, 4-(4-{1-[2-(4-Acetyl-3,5-dimethyl-piperazin-1-yl)-pyridin-4-yl]-1H-[1,2,4]triazol-3-ylamino}-phenyl)-piperazine-1-carboxylic acid tert-butyl ester]
> 6.30	–	6.30 to 7.30	CCNC(=O)Nc1ccc(Nc2ncn(-c3ccnc(N4C[C@@H](C)N(C(C)=O)[C@@H](C)C4)c3)n2)cc1 [Compound I-98, 1-(4-{1-[2-(4-Acetyl-3,5-dimethyl-piperazin-1-yl)-pyridin-4-yl]-1H-[1,2,4]triazol-3-ylamino}-phenyl)-3-ethyl-urea]
> 6.30	–	6.30 to 7.30	CCCNC(=O)Nc1ccc(Nc2ncn(-c3ccnc(N4C[C@@H](C)N(C(C)=O)[C@@H](C)C4)c3)n2)cc1 [Compound I-99]
> 6.30	–	6.30 to 7.30	CC(=O)N1[C@H](C)CN(c2cc(-n3cnc(Nc4ccc(NC(=O)NC(C)C)cc4)n3)ccn2)C[C@@H]1C [Compound I-100]
6.00 to 6.30	–	6.30 to 7.30	CC(=O)N1[C@H](C)CN(c2cc(-n3cnc(Nc4ccc(NC(=O)NC(C)(C)C)cc4)n3)ccn2)C[C@@H]1C [Compound I-101]
